Format in all cases: cell-based
In one experiment the target is T1, human TLR7 (Homo sapiens, UniProt Q9NYK1).
T1 construct: host or cells: HEK-Blue cells
T1 sequence (Q9NYK1 27-1049): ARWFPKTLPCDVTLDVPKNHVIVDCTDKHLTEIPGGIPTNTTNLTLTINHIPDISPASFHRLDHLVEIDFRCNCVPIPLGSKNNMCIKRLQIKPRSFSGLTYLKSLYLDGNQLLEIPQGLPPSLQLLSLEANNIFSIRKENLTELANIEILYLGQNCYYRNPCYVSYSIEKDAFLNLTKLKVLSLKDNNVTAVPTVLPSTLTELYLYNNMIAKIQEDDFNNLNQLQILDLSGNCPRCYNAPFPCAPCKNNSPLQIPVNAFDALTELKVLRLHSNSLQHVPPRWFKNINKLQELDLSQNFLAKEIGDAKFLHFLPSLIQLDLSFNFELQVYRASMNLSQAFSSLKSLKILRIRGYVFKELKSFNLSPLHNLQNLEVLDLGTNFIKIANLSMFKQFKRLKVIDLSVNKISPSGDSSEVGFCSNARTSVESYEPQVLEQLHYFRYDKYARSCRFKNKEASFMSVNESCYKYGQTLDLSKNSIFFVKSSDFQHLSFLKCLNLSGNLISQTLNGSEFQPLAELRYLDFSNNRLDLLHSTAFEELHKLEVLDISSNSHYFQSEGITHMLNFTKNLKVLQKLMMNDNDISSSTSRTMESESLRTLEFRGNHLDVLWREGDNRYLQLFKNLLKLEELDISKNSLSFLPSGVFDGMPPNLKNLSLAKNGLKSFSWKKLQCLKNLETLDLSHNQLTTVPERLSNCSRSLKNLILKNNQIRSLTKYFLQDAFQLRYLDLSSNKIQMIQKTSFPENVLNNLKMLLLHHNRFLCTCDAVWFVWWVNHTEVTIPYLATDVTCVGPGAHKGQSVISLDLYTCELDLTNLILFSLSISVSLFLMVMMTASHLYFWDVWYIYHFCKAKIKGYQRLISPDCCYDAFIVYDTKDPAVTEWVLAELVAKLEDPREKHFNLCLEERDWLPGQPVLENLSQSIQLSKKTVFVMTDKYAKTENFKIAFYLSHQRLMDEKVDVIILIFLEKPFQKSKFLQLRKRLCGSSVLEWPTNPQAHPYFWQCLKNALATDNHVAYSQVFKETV
In words: TLR7 inhibition reporter assay (HEK-Blue cells, SEAP reporter, gardiquimod stimulation). The note with it: HEK-Blue cells overexpressing human TLR7, SEAP reporter, gardiquimod 7.5 μM. The method in brief: (§1)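 Percent inhibition is derived from SEAP signal, scaled between agonist-plus-DMSO wells and wells given a known inhibitor. Test compounds (0.05 nM–50 μM) are pre-incubated 30 min at room temperature before agonist addition (TLR7: 7.5 μM gardiquimod; TLR8: 15.9 μM R848; TLR9: 5 nM ODN2006) and 22 h culture at 37 °C.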
Background: A reporter such as luciferase makes a cellular process visible.

Another experiment concerns the target T2, human TLR8 (Homo sapiens, UniProt Q9NR97).
T2 construct: host or cells: HEK-Blue cells
T2 sequence (Q9NR97 27-1041): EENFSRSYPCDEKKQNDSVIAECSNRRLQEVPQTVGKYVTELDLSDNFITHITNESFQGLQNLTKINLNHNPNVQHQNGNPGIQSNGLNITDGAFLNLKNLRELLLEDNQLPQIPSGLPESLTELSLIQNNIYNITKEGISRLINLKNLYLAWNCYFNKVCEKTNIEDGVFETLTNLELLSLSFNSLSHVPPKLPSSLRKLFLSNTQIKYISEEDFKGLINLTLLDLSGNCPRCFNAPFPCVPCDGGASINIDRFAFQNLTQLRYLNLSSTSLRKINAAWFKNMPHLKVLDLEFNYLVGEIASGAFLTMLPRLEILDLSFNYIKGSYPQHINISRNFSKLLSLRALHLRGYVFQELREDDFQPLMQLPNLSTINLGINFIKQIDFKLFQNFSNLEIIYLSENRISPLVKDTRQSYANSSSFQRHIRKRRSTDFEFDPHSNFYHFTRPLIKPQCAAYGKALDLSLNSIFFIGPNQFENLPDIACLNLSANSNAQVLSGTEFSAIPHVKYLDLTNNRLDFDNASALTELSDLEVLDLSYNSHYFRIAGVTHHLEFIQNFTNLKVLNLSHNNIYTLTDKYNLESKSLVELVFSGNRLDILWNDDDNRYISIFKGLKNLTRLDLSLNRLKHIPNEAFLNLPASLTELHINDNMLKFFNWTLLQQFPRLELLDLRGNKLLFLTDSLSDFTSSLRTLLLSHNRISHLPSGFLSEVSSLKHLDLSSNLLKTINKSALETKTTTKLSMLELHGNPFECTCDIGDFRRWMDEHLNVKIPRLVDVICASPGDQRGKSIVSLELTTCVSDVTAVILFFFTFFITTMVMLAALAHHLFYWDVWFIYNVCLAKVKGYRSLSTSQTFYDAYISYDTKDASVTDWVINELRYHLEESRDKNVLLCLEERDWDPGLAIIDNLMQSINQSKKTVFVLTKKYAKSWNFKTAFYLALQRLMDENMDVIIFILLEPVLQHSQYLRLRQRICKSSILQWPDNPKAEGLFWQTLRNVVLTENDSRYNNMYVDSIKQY
In words: TLR8 inhibition reporter assay (HEK-Blue cells, SEAP reporter, R848 stimulation). The note with it: HEK-Blue cells overexpressing human TLR8, SEAP reporter, R848 15.9 μM. Summed up: as §1

The target of the next experiment is T3, human TLR9 (Homo sapiens, UniProt Q9NR96).
T3 construct: host or cells: HEK-Blue cells
T3 sequence (Q9NR96 26-1032): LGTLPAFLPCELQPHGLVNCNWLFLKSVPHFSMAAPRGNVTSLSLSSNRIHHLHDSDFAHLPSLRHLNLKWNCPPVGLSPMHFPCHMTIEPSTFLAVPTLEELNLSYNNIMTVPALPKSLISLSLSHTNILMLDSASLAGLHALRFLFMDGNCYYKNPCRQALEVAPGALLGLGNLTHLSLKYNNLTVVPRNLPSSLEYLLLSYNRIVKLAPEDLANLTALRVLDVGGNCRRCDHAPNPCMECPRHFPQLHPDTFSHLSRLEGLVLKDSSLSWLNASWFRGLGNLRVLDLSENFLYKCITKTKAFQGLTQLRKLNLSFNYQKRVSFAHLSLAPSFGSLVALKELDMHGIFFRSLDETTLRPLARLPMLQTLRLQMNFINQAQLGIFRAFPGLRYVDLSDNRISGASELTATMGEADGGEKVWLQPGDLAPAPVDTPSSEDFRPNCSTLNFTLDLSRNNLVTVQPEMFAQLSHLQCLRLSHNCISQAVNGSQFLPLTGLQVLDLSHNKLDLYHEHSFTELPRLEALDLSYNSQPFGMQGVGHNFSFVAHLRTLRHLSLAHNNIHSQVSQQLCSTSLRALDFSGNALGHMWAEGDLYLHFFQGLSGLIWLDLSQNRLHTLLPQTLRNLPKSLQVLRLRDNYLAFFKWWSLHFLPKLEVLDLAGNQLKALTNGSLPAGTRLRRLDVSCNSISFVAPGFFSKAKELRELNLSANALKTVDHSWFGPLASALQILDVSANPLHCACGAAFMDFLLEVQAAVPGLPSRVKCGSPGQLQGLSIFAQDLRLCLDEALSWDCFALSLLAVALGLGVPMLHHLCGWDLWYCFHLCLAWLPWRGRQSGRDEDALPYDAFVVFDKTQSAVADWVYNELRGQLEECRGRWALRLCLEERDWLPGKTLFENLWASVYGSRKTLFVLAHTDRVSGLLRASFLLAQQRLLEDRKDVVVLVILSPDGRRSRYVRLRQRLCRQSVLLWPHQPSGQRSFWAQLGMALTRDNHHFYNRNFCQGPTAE
The experiment can be described thus: TLR9 inhibition reporter assay (HEK-Blue cells, SEAP reporter, ODN2006 stimulation). The note with it: HEK-Blue cells overexpressing human TLR9, SEAP reporter, ODN2006 5 nM. The method in brief: as §1

SMILES strings stand for the structures. pIC50: −log10 of the molar value.

One may read the pIC50 as the IC50 on a negative log10 scale, so that one unit is a factor of ten. High values mean a low IC50, low ones a high IC50. In the case of `CNCC(=O)N1CC(c2ccc3[nH]c(-c4cc(C)c5ncnn5c4)c(C(C)C)c3c2)C1` [Example 267, 1-(3-(3-isopropyl-2-(8-methyl-[1,2,4]triazolo[1,5-a]pyridin-6-yl)-1H-indol-5-yl)azetidin-1-yl)-2-(methylamino)ethan-1-one], the pIC50 at human TLR7 was 9.02; against human TLR8, 8.26; against human TLR9, 5.70.
Turning to `CCc1c(-c2ccc(OC)c(OC)c2)[nH]c2ccc(CN3CCNCC3)cc12` [Example 390, 2-(3,4-dimethoxyphenyl)-3-ethyl-5-(piperazin-1-ylmethyl)-1H-indole], the pIC50 was 6.86 against human TLR7, 7.14 against human TLR8 and 5.23 against human TLR9.
Take `CCc1c(-c2ccnc(C)c2)[nH]c2ccc(CC3CCCN3)cc12` (stereo not drawn) [Example 420]: the values for the pIC50 against human TLR7, against human TLR8 and on human TLR9 were 6.51, 7.42 and 5.98, respectively.
For `COc1cc(-c2[nH]c3ccc(C4CCCN(C5CCOCC5)C4)cc3c2C(C)C)cn2ncnc12` (stereo not drawn) [Example 244], in that order: 8.40, 9.16 and 5.92.
For `Cc1c(-c2[nH]c3ccc(C4CC(NC5COC5)C4)cc3c2C(C)C)cn2ncnc2c1C` (stereo not drawn) [Example 575], in that order: 8.40, 8.96 and 4.65.
`COc1cc(-c2[nH]c3ccc(C4CCCN(C(=O)CN(C)C)C4)cc3c2C(C)C)cn2ncnc12` (stereo not drawn) [Example 191]: the values for the negative logarithm of the IC50 (pIC50) against human TLR7, at human TLR8 and against human TLR9 were 9.47, 8.59 and 5.73, respectively.
Take `COc1cc(-c2[nH]c3ccc(C4CCC(N(C)CCS(C)(=O)=O)CC4)cc3c2C(C)C)cn2ncnc12` (stereo not drawn) [Example 150, 4-(3-isopropyl-2-(8-methoxy-[1,2,4]triazolo[1,5-a]pyridin-6-yl)-1H-indol-5-yl)-N-methyl-N-(2-(methylsulfonyl)ethyl)cyclohexanamine]: the pIC50 is 9.46 on human TLR7, 9.36 against human TLR8 and 5.77 on human TLR9.
For `Cc1cc(-c2[nH]c3ccc(C4CN(CC(C)(C)O)CCO4)cc3c2C(C)C)cn2ncnc12` (single isomer, unassigned) [Example 356], in that order: 8.22, 8.34 and 5.16.
For `Cc1cc(-c2[nH]c3ccc([C@H]4C[C@H]4C(=O)NC4CCC5CNCC54)cc3c2C(C)C)ccn1` (stereo partly drawn) [Example 453], in that order: 7.11, 7.18 and 6.72.
For `CNC(=O)CNC1CCC(c2ccc3[nH]c(-c4cc(OC)c5ncnn5c4)c(C(C)C)c3c2)CC1` (stereo not drawn) [Example 166], in that order: 8.40, 7.74 and 4.77.
`COc1cc(-c2[nH]c3ccc(C4CCC(NC(=O)CNC5COC5)CC4)cc3c2C(C)C)cn2ncnc12` (stereo not drawn) [Example 137]: the pIC50 against human TLR7 is 8.70; against human TLR8 it was 8.31; against human TLR9, 4.58.
For the compound `CC(C)c1c(-c2ccnc3[nH]ncc23)[nH]c2ccc(/C=C/C3CCNCC3)cc12` [Example 422], the pIC50 at human TLR7 was 7.89; against human TLR8 it was 8.68; against human TLR9, 6.34.
`COc1cc(-c2[nH]c3ccc(C4CCC(N(C)C5CC5)CC4)cc3c2C(C)C)cn2ncnc12` (stereo not drawn) [Example 12]: the pIC50 was 9.15 against human TLR7, 8.80 against human TLR8 and 5.67 on human TLR9.
In the case of `COc1cc(-c2[nH]c3ccc(C4CCC(NC(=O)CN5CCOCC5)CC4)cc3c2C(C)C)cn2ncnc12` (stereo not drawn) [Example 141], the figures for the negative logarithm of the IC50 (pIC50) against human TLR7, against human TLR8 and against human TLR9 were 8.70, 7.74 and 5.36, respectively.
For `Cc1cc(-c2[nH]c3ccc([C@H]4C[C@H]4C(=O)N4CC5CNCC5C4)cc3c2C(C)C)ccn1` (stereo partly drawn) [Example 455], in that order: 6.73, 7.80 and 6.49.
For `Cc1c(-c2[nH]c3ccc(C4CCC(NC(=O)CN(C)C)CC4)cc3c2C(C)C)cn2ncnc2c1C` (stereo not drawn) [Example 124], in that order: 8.05, 7.92 and 5.09.
For `COCCN1CCOC(c2ccc3[nH]c(-c4cc(OC)c5ncnn5c4)c(C(C)C)c3c2)C1` (stereo not drawn) [Example 345], in that order: 8.22, 7.92 and 5.06.
For the compound `COc1cc(-c2[nH]c3ccc(C4CCCN(CC(=O)N(C)C)C4)cc3c2C(C)C)cn2ncnc12` (stereo not drawn) [Example 222, 2-(3-(3-isopropyl-2-(8-methoxy-[1,2,4]triazolo[1,5-a]pyridin-6-yl)-1H-indol-5-yl)piperidin-1-yl)-N,N-dimethylacetamide], the negative logarithm of the IC50 (pIC50) is 8.70 against human TLR7, 8.04 against human TLR8 and 5.51 against human TLR9.
As for `Cc1c(-c2[nH]c3ccc(C4CN(CC(=O)N(C)C)C(C)(C)CO4)cc3c2C(C)C)cn2ncnc2c1C` (stereo not drawn) [Example 387], the pIC50 on human TLR7 is 7.07; at human TLR8, 7.36; at human TLR9, below 4.30.

Source of the values: US11878975B2, “Substituted indole compounds useful as TLR inhibitors” (BRISTOL-MYERS SQUIBB COMPANY, priority 2017, dated 2024).
